Assay results: ChEMBL document CHEMBL4665688, “Discovery of AB680: A Potent and Selective Inhibitor of CD73” (J Med Chem, 2020); call rule not given here

Legend:
[1] = molecular target: T1, Cytochrome P450 1A2 (Homo sapiens, UniProt P05177); assay: Inhibition of CYP1A2 in human liver microsomes using phenacetin as substrate incubated for 5 to 20 mins in presence of NADPH by LC-MS/MS analysis; format: ADME; conditions: time 5-20 min; read-out: INH
T1 sequence (P05177 whole entry): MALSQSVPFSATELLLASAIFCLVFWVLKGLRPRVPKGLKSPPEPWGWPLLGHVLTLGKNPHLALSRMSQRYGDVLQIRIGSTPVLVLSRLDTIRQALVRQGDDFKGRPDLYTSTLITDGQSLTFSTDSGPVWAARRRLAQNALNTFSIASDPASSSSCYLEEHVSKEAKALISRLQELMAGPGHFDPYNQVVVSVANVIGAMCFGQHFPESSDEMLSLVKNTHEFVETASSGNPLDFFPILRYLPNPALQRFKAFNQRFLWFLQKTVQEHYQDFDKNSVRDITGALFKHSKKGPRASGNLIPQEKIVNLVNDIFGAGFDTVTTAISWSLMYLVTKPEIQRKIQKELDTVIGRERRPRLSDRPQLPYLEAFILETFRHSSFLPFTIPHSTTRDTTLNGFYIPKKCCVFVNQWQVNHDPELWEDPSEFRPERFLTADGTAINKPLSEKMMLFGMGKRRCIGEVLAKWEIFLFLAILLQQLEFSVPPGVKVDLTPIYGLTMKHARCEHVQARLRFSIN

[2] = molecular target: Cytochrome P450 2C9 (Homo sapiens, UniProt P11712); assay: Inhibition of CYP2C9 in human liver microsomes using diclofenac as substrate incubated for 5 to 20 mins in presence of NADPH by LC-MS/MS analysis; format: ADME; conditions: time 5-20 min
[3] = molecular target: T2, Cytochrome P450 2C19 (Homo sapiens, UniProt P33261); assay: Inhibition of CYP2C19 in human liver microsomes using s-mephenytoin as substrate incubated for 5 to 20 mins in presence of NADPH by LC-MS/MS analysis; format: ADME; conditions: time 5-20 min; read-out: INH
[4] = molecular target: T1, Cytochrome P450 1A2; assay: Time dependent inhibition of CYP1A2 in human liver microsomes using phenacetin as substrate in presence of NADPH by LC-MS/MS analysis; format: ADME
[5] = molecular target: T2, Cytochrome P450 2C19; assay: Time dependent inhibition of CYP2C19 in human liver microsomes using s-mephenytoin as substrate in presence of NADPH by LC-MS/MS analysis; format: ADME
[6] = molecular target: Cytochrome P450 2D6 (Homo sapiens, UniProt P10635); assay: Time dependent inhibition of CYP2D6 in human liver microsomes using dextromethorphan as substrate in presence of NADPH by LC-MS/MS analysis; format: ADME
[7] = molecular target: T3, Cytochrome P450 3A4 (Homo sapiens, UniProt P08684); assay: Time dependent inhibition of CYP3A4 in human liver microsomes using midazolam as substrate in presence of NADPH by LC-MS/MS analysis; format: ADME
[8] = molecular target: Voltage-gated inwardly rectifying potassium channel KCNH2 (Homo sapiens, UniProt Q12809); assay: Inhibition of human ERG
[9] = molecular target: T1, Cytochrome P450 1A2; assay: Induction of CYP1A2 (unknown origin) assessed as effect on CYP1A2 mRNA expression; format: ADME
[10] = molecular target: T3, Cytochrome P450 3A4; assay: Induction of CYP3A4 (unknown origin) assessed as effect on CYP3A4 mRNA expression; format: ADME
[11] = Clearance in human at 16 mg, iv administered as single infusion for 30 to 60 mins; format: ADME, organism-based; conditions: in vivo, time 30-60 min
[12] = Clearance in human at 25 mg, iv administered as single infusion for 30 to 60 mins; format: ADME, organism-based; conditions: in vivo, time 30-60 min
[13] = Toxicity in human at 0.1 to 25 mg, iv administered as single dose; format: organism-based; conditions: in vivo, dose 0.1-25 mg
[14] = molecular target: 5'-nucleotidase (Homo sapiens, UniProt P21589); assay: Inhibition of soluble human CD73
5'-nucleotidase, sequence (P21589 whole entry): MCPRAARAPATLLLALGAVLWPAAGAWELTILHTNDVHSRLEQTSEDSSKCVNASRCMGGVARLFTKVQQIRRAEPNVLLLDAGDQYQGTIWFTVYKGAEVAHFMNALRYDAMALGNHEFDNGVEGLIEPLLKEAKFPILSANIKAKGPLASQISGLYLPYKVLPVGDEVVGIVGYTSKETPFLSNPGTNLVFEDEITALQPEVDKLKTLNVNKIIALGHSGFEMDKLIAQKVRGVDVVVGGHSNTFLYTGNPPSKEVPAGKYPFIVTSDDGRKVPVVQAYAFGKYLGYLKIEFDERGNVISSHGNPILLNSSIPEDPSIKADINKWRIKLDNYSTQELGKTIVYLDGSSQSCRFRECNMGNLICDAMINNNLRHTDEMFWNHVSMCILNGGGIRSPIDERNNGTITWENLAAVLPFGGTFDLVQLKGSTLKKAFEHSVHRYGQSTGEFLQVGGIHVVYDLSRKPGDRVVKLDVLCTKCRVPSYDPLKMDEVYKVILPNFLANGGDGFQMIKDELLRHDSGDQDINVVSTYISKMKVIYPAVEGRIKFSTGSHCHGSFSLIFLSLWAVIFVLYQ

T3 sequence (P08684 whole entry): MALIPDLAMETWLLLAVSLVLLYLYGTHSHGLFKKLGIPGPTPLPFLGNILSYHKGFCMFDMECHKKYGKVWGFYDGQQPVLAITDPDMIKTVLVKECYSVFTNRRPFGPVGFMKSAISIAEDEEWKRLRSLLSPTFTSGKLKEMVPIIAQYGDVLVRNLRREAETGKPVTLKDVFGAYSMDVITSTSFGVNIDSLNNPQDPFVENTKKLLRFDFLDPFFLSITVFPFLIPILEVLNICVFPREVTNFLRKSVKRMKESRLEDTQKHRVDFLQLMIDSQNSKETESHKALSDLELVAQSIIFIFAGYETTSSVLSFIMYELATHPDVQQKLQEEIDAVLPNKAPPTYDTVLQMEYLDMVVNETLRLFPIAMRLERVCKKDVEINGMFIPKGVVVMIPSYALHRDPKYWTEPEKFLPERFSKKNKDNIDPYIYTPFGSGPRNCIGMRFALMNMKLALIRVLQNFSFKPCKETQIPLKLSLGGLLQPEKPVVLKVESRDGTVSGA
T2 sequence (P33261 whole entry): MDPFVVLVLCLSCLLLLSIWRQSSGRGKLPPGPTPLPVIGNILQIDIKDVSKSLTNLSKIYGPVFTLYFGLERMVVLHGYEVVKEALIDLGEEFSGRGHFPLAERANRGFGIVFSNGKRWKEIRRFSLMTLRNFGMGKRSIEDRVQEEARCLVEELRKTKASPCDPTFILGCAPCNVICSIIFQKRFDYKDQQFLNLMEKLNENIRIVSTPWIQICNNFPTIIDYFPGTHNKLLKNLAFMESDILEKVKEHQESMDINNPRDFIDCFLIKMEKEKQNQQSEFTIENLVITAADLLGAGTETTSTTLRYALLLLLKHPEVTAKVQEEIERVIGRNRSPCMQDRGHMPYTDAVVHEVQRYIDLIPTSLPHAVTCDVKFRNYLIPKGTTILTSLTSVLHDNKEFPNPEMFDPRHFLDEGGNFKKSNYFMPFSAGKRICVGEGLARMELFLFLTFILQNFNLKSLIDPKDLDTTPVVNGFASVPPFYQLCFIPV
Cytochrome P450 2D6, sequence (P10635 whole entry): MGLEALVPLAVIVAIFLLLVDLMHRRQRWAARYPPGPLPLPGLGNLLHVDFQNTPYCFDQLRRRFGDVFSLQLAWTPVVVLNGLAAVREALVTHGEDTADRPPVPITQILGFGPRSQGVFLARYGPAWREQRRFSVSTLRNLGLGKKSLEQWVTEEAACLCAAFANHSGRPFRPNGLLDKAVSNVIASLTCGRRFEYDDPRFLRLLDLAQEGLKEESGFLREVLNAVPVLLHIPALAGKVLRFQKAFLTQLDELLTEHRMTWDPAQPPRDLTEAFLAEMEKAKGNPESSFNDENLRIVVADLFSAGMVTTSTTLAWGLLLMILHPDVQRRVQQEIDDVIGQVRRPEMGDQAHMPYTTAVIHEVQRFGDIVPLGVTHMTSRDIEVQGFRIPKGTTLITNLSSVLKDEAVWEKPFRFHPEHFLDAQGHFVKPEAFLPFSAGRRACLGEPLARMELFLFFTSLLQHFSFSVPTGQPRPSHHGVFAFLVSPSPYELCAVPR
Voltage-gated inwardly rectifying potassium channel KCNH2, sequence (Q12809 whole entry): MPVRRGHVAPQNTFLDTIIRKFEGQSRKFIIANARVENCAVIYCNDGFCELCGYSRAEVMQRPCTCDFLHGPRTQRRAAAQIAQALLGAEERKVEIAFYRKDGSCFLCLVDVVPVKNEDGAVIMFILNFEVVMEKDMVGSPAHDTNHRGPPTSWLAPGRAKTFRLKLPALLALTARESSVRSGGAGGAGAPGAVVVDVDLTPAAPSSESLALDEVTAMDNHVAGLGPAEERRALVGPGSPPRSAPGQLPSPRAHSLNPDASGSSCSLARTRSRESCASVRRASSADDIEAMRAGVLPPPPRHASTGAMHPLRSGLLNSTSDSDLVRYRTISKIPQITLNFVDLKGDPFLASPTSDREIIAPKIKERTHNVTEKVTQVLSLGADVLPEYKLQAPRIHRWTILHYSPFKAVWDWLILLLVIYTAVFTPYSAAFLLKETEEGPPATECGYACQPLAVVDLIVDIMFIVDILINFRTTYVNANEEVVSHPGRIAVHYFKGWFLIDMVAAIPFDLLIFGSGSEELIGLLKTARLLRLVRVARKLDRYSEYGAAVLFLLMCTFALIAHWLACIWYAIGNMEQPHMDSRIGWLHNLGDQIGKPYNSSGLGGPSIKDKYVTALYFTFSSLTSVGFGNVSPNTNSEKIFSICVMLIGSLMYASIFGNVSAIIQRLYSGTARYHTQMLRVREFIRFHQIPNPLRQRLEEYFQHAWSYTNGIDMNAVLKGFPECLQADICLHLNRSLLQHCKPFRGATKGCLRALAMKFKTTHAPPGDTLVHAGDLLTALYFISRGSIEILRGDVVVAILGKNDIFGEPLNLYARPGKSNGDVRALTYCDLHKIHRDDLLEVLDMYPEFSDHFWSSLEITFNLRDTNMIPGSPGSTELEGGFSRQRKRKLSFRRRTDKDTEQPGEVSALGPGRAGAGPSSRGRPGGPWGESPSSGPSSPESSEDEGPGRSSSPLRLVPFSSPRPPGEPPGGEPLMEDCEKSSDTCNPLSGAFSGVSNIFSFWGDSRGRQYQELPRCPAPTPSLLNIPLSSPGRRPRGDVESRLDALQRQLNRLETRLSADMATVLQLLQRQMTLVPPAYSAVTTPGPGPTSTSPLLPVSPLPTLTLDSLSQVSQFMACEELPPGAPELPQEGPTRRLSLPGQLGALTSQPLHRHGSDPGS
Cytochrome P450 2C9, sequence (P11712 whole entry): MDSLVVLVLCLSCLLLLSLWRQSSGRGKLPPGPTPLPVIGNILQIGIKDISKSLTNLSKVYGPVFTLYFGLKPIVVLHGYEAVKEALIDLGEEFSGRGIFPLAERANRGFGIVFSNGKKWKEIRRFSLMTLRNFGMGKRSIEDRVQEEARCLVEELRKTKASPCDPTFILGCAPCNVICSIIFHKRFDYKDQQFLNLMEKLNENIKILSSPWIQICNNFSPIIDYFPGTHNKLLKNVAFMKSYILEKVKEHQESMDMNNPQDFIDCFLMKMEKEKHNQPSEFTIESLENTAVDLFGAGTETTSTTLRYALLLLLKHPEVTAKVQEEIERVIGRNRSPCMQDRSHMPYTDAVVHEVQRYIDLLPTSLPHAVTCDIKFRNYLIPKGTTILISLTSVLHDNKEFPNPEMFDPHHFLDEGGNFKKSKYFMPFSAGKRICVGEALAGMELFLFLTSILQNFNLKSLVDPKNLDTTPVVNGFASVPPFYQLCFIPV

Row | IC50 [1] [µM] | INH [2] [µM] | IC50 [3] [µM] | TDI [4] | TDI [5] | TDI [6] | TDI [7] | Activity [9] | Activity [10] | clearance [11] [mL/min] | clearance [12] [mL/min] | IC50 [14] [nM] | SMILES | IC50 [8] [µM] | Activity [13]
1 | > 100 | > 100 | > 100 | Not Active | Not Active | Not Active | Not Active | Not Active | Not Active | 1.12 | 1.14 | – | C[C@H](Nc1cc(Cl)nc2c1cnn2[C@@H]1O[C@H](COP(=O)(O)CP(=O)(O)O)[C@@H](O)[C@H]1O)c1ccccc1F | > 10 | Non-Toxic
2 | – | – | – | – | – | – | – | – | – | – | – | 0.053 | C[C@H](Nc1nc(Cl)nc2c1cnn2[C@@H]1O[C@H](COP(=O)(O)CP(=O)(O)O)[C@@H](O)[C@H]1O)c1ccccc1 | – | –
